Values after ≈ are worked out from the molar mass of the structure shown.
Tests used:
HIV-1 (RF) = assay: HIV RNA assay: microplate based compound evaluation in HIV-1 infected MT-2 cells; type: cell-based; conditions: Human immunodeficiency virus 1, MT2, 72 h; HIV-1 (RF) infected MT-2 cells, 3 days of culture; virus inoculum standardised to this value; read-out: IC90 value (concentration of compound required to reduce the HIV RNA level by 90%)
Protocol: MT-2 and MT-4 cells were maintained in RPMI 1640 supplemented with 5% fetal calf serum (FCS) for MT-2 cells or 10% FCS for MT-4 cells, 2 mM L-glutamine and 50 μg/mL gentamycin, all from Gibco. HIV-1 RF was propagated in MT-4 cells in the same medium. Virus stocks were prepared approximately 10 days after acute infection of MT-4 cells and stored as aliquots at −70° C. Infectious titers of HIV-1 (RF) stocks were 1-3×10^7 PFU (plaque forming units)/mL as measured by plaque assay on MT-2 cells (see below). Each aliquot of virus stock used for infection was thawed only once.
For evaluation of antiviral efficacy, cells to be infected were subcultured one day prior to infection. […]
Cell lysates or purified RNA in 3 M or 5 M GED were mixed with 5 M GED and capture probe to a final guanidinium isothiocyanate concentration of 3 M and a final biotin oligonucleotide concentration of 30 nM. […] Immobilized alkaline phosphatase activity was detected by addition of 100 μL of 0.2 mM 4-methylumbelliferyl phosphate (MUBP, JBL Scientific) in buffer δ (2.5 M diethanolamine pH 8.9 (JBL Scientific), 10 mM MgCl2, 5 mM zinc acetate dihydrate and 5 mM N-hydroxyethyl-ethylene-diamine-triacetic acid). […] Fluorescence at […] was measured using a microplate fluorometer (Dynateck) exciting at […]. […]

SMILES	melting point	IC90 (HIV-1 (RF))
O=C1C=NC(CC2CC2)(C(F)(F)F)c2cc(Cl)ccc2N1 (stereo not drawn) [compound 196, 7-Chloro-5-(cyclopropylmethyl)-1,5-dihydro-5-(trifluoromethyl)-1,4-benzodiazepin-2-one]	105 to 108 °C	
O=C1C=NC(CCCC(F)(F)F)(C(F)(F)F)c2cc(Cl)ccc2N1 (stereo not drawn) [compound 197, 7-Chloro-5-(4,4,4-trifluorobutyl)-1,5-dihydro-5-(trifluoromethyl)-1,4-benzodiazepin-2-one]	178 to 180 °C	
COc1ccc2c(c1)C(C#CC1CC1)(C(F)(F)F)N=CC(=O)N2 (stereo not drawn) [compound 198, 7-Methoxy-5-(cyclopropylethynyl)-1,5-dihydro-5-(trifluoromethyl)-1,4-benzodiazepin-2-one]	145 to 146 °C	
O=C1C=NC(C#CC2CC2)(C(F)(F)F)c2cc(F)ccc2N1 (stereo not drawn) [compound 199, 7-Fluoro-5-(cyclopropylethynyl)-1,5-dihydro-5-(trifluoromethyl)-1,4-benzodiazepin-2-one]	175 to 178 °C	
O=C1C=NC(/C=C\C2CC2)(C(F)(F)F)c2cc(F)ccc2N1 (stereo not drawn) [compound 200, 7-Fluoro-5-(2-cyclopropyl-Z-ethenyl)-1,5-dihydro-5-(trifluoromethyl)-1,4-benzodiazepin-2-one]	158 to 160 °C	
O=C1C=NC(CCC(F)(F)F)(C(F)(F)F)c2c(ccc(F)c2F)N1 (stereo not drawn) [compound 201, 6,7-Difluoro-5-(3,3,3-trifluoropropyl)-1,5-dihydro-5-(trifluoromethyl)-1,4-benzodiazepin-2-one]	160 to 163 °C	
O=C1C=NC(Cc2ccccn2)(C(F)(F)F)c2cc(Cl)ccc2N1 (stereo not drawn) [compound 202, 7-Chloro-5-(2-pyridylmethyl)-1,5-dihydro-5-(trifluoromethyl)-1,4-benzodiazepin-2-one]	137 to 140 °C	
CCCCC1(C(F)(F)F)N=CC(=O)Nc2ccc(Cl)cc21 (stereo not drawn) [compound 203, 7-Chloro-5-butyl-1,5-dihydro-5-(trifluoromethyl)-1,4-benzodiazepin-2-one]	174 to 176 °C	
Nc1ccn([C@H]2CC[C@@H](CO)O2)c(=O)n1 [ddC, 2′,3′-dideoxycytidine]		0.2 µg/mL (≈ 0.947 µM)

Reference: patent publication US6462037B1, “1,4-benzodiazepin-2-ones useful as HIV reverse transcriptase inhibitors” (Bristol-Myers Squibb Pharma Company, priority 1999, dated 2002)
